Reference: patent EP3313408B1, “DROSPIRENONE-BASED CONTRACEPTIVE FOR A PATIENT AFFECTED WITH EXCESS WEIGHT” (Laboratorios Leon Farma SA, priority 2015, dated 2016)

Test: Trial CF111/302: number of days with bleeding and/or spotting over 9 treatment cycles
Assay type: in vivo, women
Experimental: The study CF111/302 below represents a pivotal, multicentre, double-blind, double-dummy, randomised trial on the contraceptive efficacy, tolerability and safety of LF111 (DRSP) over 9 cycles of 28 days of treatment (24 active test product tablets followed by 4 days of placebo tablets).
LF111 film-coated tablets (test product; 24 tablets containing 4 mg DRSP followed by 4 placebo tablets; León Farma) was orally administered during this trial. LF111 tablets are of the following formula: […]
This prospective, multicentre, randomised, double-blind, double-dummy trial was conducted on 857 women without uncontrolled current diseases, at risk of pregnancy, at the age of 18-45 years, systolic blood pressure < 140 mmHg, diastolic blood pressure < 90 mmHg followed in approximately 73 centres in Austria, Czech Republic, Germany, Hungary, Poland, Romania, Slovakia and Spain.
After providing informed consent at visit 1a (screening; V 1a) and receiving study medication at visit 1b, subjects will attend visits 2 to 4 at day 24±2 of the 1st, 3rd, and 6th cycle, and visit 5 (V5) at day 29+2 of the 9th cycle. The follow-up (visit 6; V6) will take place 7-10 days after last LF1 1 1 intake.
The planned total duration of the trial was set to be 16 months, with a maximum of 6 months for the enrolment process, a maximum of 9 months for the contraceptive treatment per se and 10 days for the follow-up step. The duration of contraceptive treatment for the individual women is 9 x 28 days. […]

Bleeding or spotting Mean # days (Period cycles 2-4, BMI < 30 kg/m^2): 16.6 days | Bleeding or spotting Mean # days (Period cycles 2-4, BMI ≥ 30 kg/m^2): 21.8 days | Bleeding or spotting Mean # days (Period cycles 2-6, BMI < 30 kg/m^2): 24.1 days | Bleeding or spotting Mean # days (Period cycles 2-6, BMI ≥ 30 kg/m^2): 16.3 days | Bleeding or spotting Mean # days (Period cycles 2-9, BMI < 30 kg/m^2): 34.7 days | Bleeding or spotting Mean # days (Period cycles 2-9, BMI ≥ 30 kg/m^2): 33.9 days
SMILES: C#C[C@]1(O)CC[C@H]2[C@@H]3CCC4=CCCC[C@@H]4[C@H]3C(=C)C[C@@]21CC [desogestrel]
